Measurements from PubChem BioAssay AID1963863 (Molecular Pharmacology Branch, DTP, NCI, 2024).

Test system: 931267-113-T-J1-PDC KRAS spheroid with HUVEC/MSC, viability
Experiment: Anticancer human tumor 931267-113-T-J1-PDC patient-derived colon adenocarcinoma cell line growth inhibition [KRAS2]
Settings: for viability, T/C: stronger effect = lower value
Summary of the method: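 KRAS-mutant tumor cells were grown as spheroids with HUVEC endothelial cells and human MSCs as stroma. Targeted agents were tested alone and with KRAS pathway inhibitors. Doses started at or near clinical Cmax, or 10 microM, descending half-log.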

[1] = curve of first compound, second compound 0.1 µM
[2] = curve of first compound, second compound 0.316 µM
[3] = curve of first compound, second compound 1 µM
[4] = curve of first compound, second compound 3.16 µM
[5] = curve of first compound, second compound 10 µM
[6] = second compound 0.1 µM, first compound 0.0316 µM
[7] = second compound 0.1 µM, first compound 0.1 µM
[8] = second compound 0.1 µM, first compound 0.316 µM
[9] = second compound 0.1 µM, first compound 1 µM
[10] = second compound 0.1 µM, first compound 3.16 µM
[11] = second compound 0.1 µM, first compound 10 µM
[12] = second compound 0.316 µM, first compound 0.0316 µM
[13] = second compound 0.316 µM, first compound 0.1 µM
[14] = second compound 0.316 µM, first compound 0.316 µM
[15] = second compound 0.316 µM, first compound 1 µM
[16] = second compound 0.316 µM, first compound 3.16 µM
[17] = second compound 0.316 µM, first compound 10 µM
[18] = second compound 1 µM, first compound 0.0316 µM
[19] = second compound 1 µM, first compound 0.1 µM
[20] = second compound 1 µM, first compound 0.316 µM
[21] = second compound 1 µM, first compound 1 µM
[22] = second compound 1 µM, first compound 3.16 µM
[23] = second compound 1 µM, first compound 10 µM
[24] = second compound 3.16 µM, first compound 0.0316 µM
[25] = second compound 3.16 µM, first compound 0.1 µM
[26] = second compound 3.16 µM, first compound 0.316 µM
[27] = second compound 3.16 µM, first compound 1 µM
[28] = second compound 3.16 µM, first compound 3.16 µM
[29] = second compound 3.16 µM, first compound 10 µM
[30] = second compound 10 µM, first compound 0.0316 µM
[31] = second compound 10 µM, first compound 0.1 µM
[32] = second compound 10 µM, first compound 0.316 µM
[33] = second compound 10 µM, first compound 1 µM
[34] = second compound 10 µM, first compound 3.16 µM
[35] = second compound 10 µM, first compound 10 µM
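Further: compound exposure lasted 7 days before the readout.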
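Wherever viability, T/C is given: 100% = DMSO vehicle control viability.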

Row | Compound | IC50 [1] | IC50 [2] | IC50 [3] | IC50 [4] | IC50 [5] | viability, T/C [6] | viability, T/C [7] | viability, T/C [8] | viability, T/C [9] | viability, T/C [10] | viability, T/C [11] | viability, T/C [12] | viability, T/C [13] | viability, T/C [14] | viability, T/C [15] | viability, T/C [16] | viability, T/C [17] | viability, T/C [18] | viability, T/C [19] | viability, T/C [20] | other results
1 | CCNC(=O)CC1N=C(c2ccc(Cl)cc2)c2cc(OC)ccc2-n2c(C)nnc21 (configuration not stated) + CNCc1ccccc1-c1csc(C(C)Nc2nc(C)nc3cc(OC)c(OC)cc23)c1 | 775 nM | 240 nM | 170 nM | < 31.6 nM | < 31.6 nM | 96.5% | 109% | 63.5% | 54.9% | 46.4% | 37.3% | 75.7% | 75.2% | 42% | 45.7% | 30.8% | 30.9% | 64.4% | 53% | 43.6% | viability, T/C [21]: 36.7%; viability, T/C [22]: 31%; viability, T/C [23]: 18.1%; viability, T/C [24]: 0.1%; viability, T/C [25]: 0.1%; viability, T/C [26]: 0.08%; viability, T/C [27]: 0.08%; viability, T/C [28]: 0.07%; viability, T/C [29]: 0.16%; viability, T/C [30]: 0.15%; viability, T/C [31]: 0.46%; viability, T/C [32]: 0.12%; viability, T/C [33]: 0.12%; viability, T/C [34]: 0.12%; viability, T/C [35]: 0.2%
2 | COC(=O)c1ccc2c(C(=Nc3ccc(N(C)C(=O)CN4CCN(C)CC4)cc3)c3ccccc3)c(O)[nH]c2c1 | – | – | – | – | – | – | – | – | – | – | – | – | – | – | – | – | – | – | – | – | viability, T/C (compound 0.0316 µM): 85.8% [middle of 5 runs]; viability, T/C (compound 0.1 µM): 78.5% [middle of 5 runs]; viability, T/C (compound 0.316 µM): 69.6% [middle of 5 runs]; viability, T/C (compound 1 µM): 59.2% [middle of 5 runs]; viability, T/C (compound 3.16 µM): 0.6% [middle of 4 runs]; viability, T/C (compound 10 µM): 0.39% [middle of 4 runs]; IC50 (curve of compound): 1.2 µM [middle of 5 runs]
3 | O=C(c1cc(Cc2n[nH]c(=O)c3ccccc23)ccc1F)N1CCN(C(=O)C2CC2)CC1 + C=CC(=O)N1CCN(c2nc(=O)n(-c3c(C)ccnc3C(C)C)c3nc(-c4c(O)cccc4F)c(F)cc23)C(C)C1 | > 10000 nM | > 10000 nM | > 10000 nM | > 10000 nM | > 10000 nM | 94.3% | 87% | 82.3% | 97.7% | 101% | 85.1% | 110% | 108% | 81.9% | 83.6% | 93.9% | 97.3% | 88% | 103% | 113% | viability, T/C [21]: 100%; viability, T/C [22]: 88.2%; viability, T/C [23]: 92.2%; viability, T/C [24]: 105%; viability, T/C [25]: 115%; viability, T/C [26]: 110%; viability, T/C [27]: 89.9%; viability, T/C [28]: 107%; viability, T/C [29]: 112%; viability, T/C [30]: 89.2%; viability, T/C [31]: 102%; viability, T/C [32]: 113%; viability, T/C [33]: 111%; viability, T/C [34]: 102%; viability, T/C [35]: 99.6%
